Test results reported in US4649200A, “Substituted pyrroles with opioid receptor activity” (Regents of the University of Minnesota, priority 1986, dated 1987).
Entries after “also recorded” stand apart in the source; their conditions may differ.

How the values were obtained:
kappa opioid receptor [1] = biological target: T1, kappa opioid receptor (Cavia porcellus, UniProt P41144); test: Antagonism of ethylketazocine (EK, kappa agonist) on the GPI, IC50 ratio; assay type: cell-based, guinea pig
T1 construct: a strip of longitudinal muscle with the myenteric plexus attached was prepared; from tissue; host or cells: guinea pig ileal longitudinal muscle strip with myenteric plexus
Description: (§1) Ilea from guinea pigs were taken approximately 10 cm from the ileocaecal junction, and a strip of longitudinal muscle with the myenteric plexus attached was prepared by method of Rang et al., Brit. J. Phamacol., 22, 356 (1964), the disclosure of which is incorporated by reference herein. A 1 cm portion of this strip was then mounted between two platinum electrodes placed in a 10 ml organ bath and connected to an isometric transducer; contractions were recorded on a polygraph. Contractions of the ileal strip were initiated by supramaximal rectangular pulses in all preparations (80 V of 0.5 ms duration at a frequency of 0.1 Hz). Krebs bicarbonate solution containing 1.25 uM chlorpheniramine maleate was the bathing solution and was continuously bubbled with 95% O2 and 5% CO2. The organ bath was maintained at 36°-37° C. The longitudinal muscle strip was allowed to equilibrate with continuous stimulation for a minimun of 90 min. Cumulative concentration-response curves were determined after drugs were added to the bath in 10- to 50-uL amounts and washed out with two 10 ml portions of buffer after noting their maximum effects.

[2] = test system: guinea pig ileal longitudinal muscle (GPI); test: Agonism on electrically stimulated guinea pig ileal longitudinal muscle (GPI); assay type: cell-based
Description: as §1
(§2) Compounds IIIa-IIIh and TENA were tested on the electrically-stimulated guniea pig ileal longitudinal muscle (GPI) and, where appropriate, the mouse vas deferens preparation (MVD).
(§3) ^a For ligands that are partial or pure antagonists, the highest
(§4) concentration and maximal response is given. Potencies of pure agonists
(IIIeh) are relative to morphine = 1.

mu receptor = biological target: T2, mu receptor (Cavia porcellus, UniProt A0ACM8Q262); test: Antagonism of morphine sulfate (mu agonist) on the GPI, IC50 ratio; assay type: cell-based, guinea pig
T2 construct: antagonism of morphine
Description: as §1

mouse vas deferens (MVD) = test: Agonism on the mouse vas deferens preparation (MVD); assay type: cell-based; details: for Emax at 1 µM: Mus musculus, read-out: MVD Agonism (maximal response at highest concentration)
Description: (§5) This assay was performed according to the description by Henderson et al., Brit. J. Pharmacol., 46, 764 (1972), the disclosure of which is incorporated by reference herein. Both vasa deferentia were dissected out of mice and mounted singly through two platinum ring electrodes in a 10 ml organ bath. The bath contained Krebs bicarbonate solution that was continuously bubbled with 95% O2 and 5% CO2. The organ bath was maintained at 37° C. The tissue was attached to an isometric transducer and stimulated transmurally with rectangular pulses ([…], 1 ms duration, supramaximal voltage). Drugs were added cumulatively to the bath in 10 to 50 ul amounts and washed out after noting their maximum effect.
as §2, §3, §4

delta opioid receptor = biological target: T3, delta opioid receptor (Mus musculus, UniProt P32300); test: Antagonism of DADLE (selective delta agonist) on the MVD, IC50 ratio; assay type: cell-based; details: IC50 of agonist in presence of antagonist / control IC50
T3 construct: Both vasa deferentia were dissected out of mice; from tissue; host or cells: mouse vas deferens
Description: as §5

kappa-opioid receptors = test: Kappa-opioid antagonist selectivity (comparison of IC50 ratios, GPI and MVD); assay type: cell-based, guinea pig
Description: as §1
This assay was performed according to the description by Henderson et al., Brit. J. Pharmacol., 46, 764 (1972), the disclosure of which is incorporated by reference herein. […]

[3] = Mouse writhing procedure, antagonism of agonist; assay type: in vivo; details: morphine 50 nmol s.c.; antagonist ICV
Description: (§6) Mice were treated with 50 nmol of the agonist (morphine, EK, or U50488H) subcutaneously and the antagonist was administered intracerebroventricularly (ICV).

kappa receptors = biological target: T4, kappa receptors (Mus musculus, UniProt P33534); test: Mouse writhing procedure, antagonism of agonist; assay type: in vivo; details: antagonist ICV
T4 construct: tested in vivo using the mouse writhing procedure; from tissue
Description: as §6

mu receptors = details: cited from earlier work
kappa receptor = details: cited from earlier work
kappa opioid receptor [4] = biological target: T1, kappa opioid receptor; test: Antagonism of U50488H (selective kappa agonist) on the GPI, IC50 ratio; assay type: cell-based, guinea pig; details: for GPI IC50 Ratio, U50488H: IC50 of agonist in presence of antagonist / control IC50
Description: as §1

[5] = antagonist 20 nM, IC50 of agonist in presence of antagonist / control IC50
[6] = Cavia porcellus, read-out: GPI Agonism (maximal response at highest concentration)
[7] = antagonist 2 nM, IC50 of agonist in presence of antagonist / control IC50

T2 sequence (A0ACM8Q262 1-400): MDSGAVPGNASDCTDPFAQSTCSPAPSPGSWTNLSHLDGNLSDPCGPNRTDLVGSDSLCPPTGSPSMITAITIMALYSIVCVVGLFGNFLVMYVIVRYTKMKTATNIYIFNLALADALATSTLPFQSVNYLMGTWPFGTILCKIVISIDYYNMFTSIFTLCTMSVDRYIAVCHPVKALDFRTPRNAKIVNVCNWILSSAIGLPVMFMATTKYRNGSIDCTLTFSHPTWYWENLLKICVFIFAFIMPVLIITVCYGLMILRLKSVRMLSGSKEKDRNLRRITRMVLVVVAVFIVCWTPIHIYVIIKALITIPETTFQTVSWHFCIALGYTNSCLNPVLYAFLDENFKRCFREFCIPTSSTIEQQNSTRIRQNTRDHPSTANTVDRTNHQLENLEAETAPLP
T3 sequence (P32300 whole entry): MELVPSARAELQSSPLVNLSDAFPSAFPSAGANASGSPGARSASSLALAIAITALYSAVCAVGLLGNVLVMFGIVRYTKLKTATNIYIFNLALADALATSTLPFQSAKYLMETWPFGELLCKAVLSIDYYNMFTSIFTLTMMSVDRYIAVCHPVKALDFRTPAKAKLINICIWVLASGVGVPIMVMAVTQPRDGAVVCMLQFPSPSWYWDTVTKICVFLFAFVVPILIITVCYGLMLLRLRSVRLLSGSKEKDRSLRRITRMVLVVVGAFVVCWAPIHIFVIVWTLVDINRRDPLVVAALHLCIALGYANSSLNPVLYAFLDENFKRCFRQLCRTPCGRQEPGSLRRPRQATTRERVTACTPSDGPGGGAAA
T1 sequence (P41144 whole entry): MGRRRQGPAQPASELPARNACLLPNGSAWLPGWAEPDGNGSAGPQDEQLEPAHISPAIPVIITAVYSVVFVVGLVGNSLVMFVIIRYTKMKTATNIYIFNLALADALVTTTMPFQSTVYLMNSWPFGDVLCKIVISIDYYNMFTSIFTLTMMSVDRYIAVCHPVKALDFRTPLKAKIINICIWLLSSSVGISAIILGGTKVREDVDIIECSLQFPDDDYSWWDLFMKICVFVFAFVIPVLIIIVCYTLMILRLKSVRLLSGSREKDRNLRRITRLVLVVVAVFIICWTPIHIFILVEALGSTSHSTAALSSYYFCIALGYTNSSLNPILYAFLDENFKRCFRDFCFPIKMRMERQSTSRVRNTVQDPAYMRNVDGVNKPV
T4 sequence (P33534 whole entry): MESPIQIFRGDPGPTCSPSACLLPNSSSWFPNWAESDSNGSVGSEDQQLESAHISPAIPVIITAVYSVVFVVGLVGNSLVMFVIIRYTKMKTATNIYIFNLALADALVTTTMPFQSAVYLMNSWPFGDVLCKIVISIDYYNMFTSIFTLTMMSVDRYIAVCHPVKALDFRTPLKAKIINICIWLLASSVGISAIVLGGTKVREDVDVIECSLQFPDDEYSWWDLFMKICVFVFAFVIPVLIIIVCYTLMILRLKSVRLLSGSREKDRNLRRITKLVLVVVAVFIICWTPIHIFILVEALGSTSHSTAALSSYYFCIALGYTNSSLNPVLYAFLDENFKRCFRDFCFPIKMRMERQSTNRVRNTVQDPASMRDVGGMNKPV

| SMILES | GPI Agonism, potency of pure agonists relative to morphine = 1 [2] | GPI IC50 Ratio, Ethylketazocine (kappa opioid receptor [1]; [5]) | Emax at 1 µM (mouse vas deferens (MVD)) [%] | Emax at 1 µM [2, 6] [%] | MVD IC50 Ratio, DADLE (delta opioid receptor; antagonist 20 nM) | GPI IC50 Ratio, Morphine Sulfate (mu receptor; [5]) | also measured |
| --- | --- | --- | --- | --- | --- | --- | --- |
| CN1CC[C@]23c4c5ccc(O)c4O[C@H]2c2[nH]c4c(c2C[C@H]3[C@H]1C5)C[C@H]1[C@H]2Cc3ccc(O)c5c3[C@@]1(CCN2C)[C@H]4O5 [IIIf] | 3.1 ± 0.4 |  |  |  |  |  | GPI IC50 Ratio, Ethylketazocine (kappa opioid receptor [1]; compound 10 nM): 0.5 ± 0.04; GPI IC50 Ratio, Morphine Sulfate (mu receptor; compound 10 nM): 0.3 ± 0.1 |
| CC(=O)Oc1ccc2c3c1O[C@H]1c4[nH]c5c(c4C[C@@]4(O)[C@@H](C2)N(CC2CC2)CC[C@]314)C[C@@]1(O)[C@H]2Cc3ccc(OC(C)=O)c4c3[C@@]1(CCN2CC1CC1)[C@H]5O4 [IIId] |  | 697 (2) | 32 | 32 | 3.5 ± 1.3 | 8.0 (2) |  |
| COc1ccc2c3c1O[C@H]1c4[nH]c5c(c4C[C@@]4(O)[C@@H](C2)N(CC2CC2)CC[C@]314)C[C@@]1(O)[C@H]2Cc3ccc(OC)c4c3[C@@]1(CCN2CC1CC1)[C@H]5O4 [IIIe] |  | 4 (2) | 39 | 0 | 0.6 ± 0.1 | 0.8 (2) |  |
| Cn1c2c(c3c1[C@@H]1Oc4c(O)ccc5c4[C@@]14CCN(CC1CC1)[C@H](C5)[C@]4(O)C3)C[C@@]1(O)[C@H]3Cc4ccc(O)c5c4[C@@]1(CCN3CC1CC1)[C@H]2O5 [IIIb] |  | 165 ± 30 | 42 | 0 | 4.5 ± 0.7 | 1.2 ± 0.3 | agonist activity in MVD (mouse vas deferens (MVD)): no agonist effect; agonist activity in GPI [2]: no agonist effect; kappa-opioid antagonist selectivity (kappa-opioid receptors): possesses the greatest kappa selectivity; also recorded: "pure" kappa-opioid receptor antagonist; ED50 ratio [(agonist+IIIb)/agonist control], morphine [3]: 0.85; ED50 ratio [(agonist+IIIb)/agonist control], EK (kappa receptors; EK 50 nmol s.c.): 3.85; ED50 ratio [(agonist+IIIb)/agonist control], U50488H (kappa receptors; U50488H 50 nmol s.c.): 15.71; antagonism of morphine in GPI (mu receptor; 20 nM): no significant antagonism of morphine was observed at 20 nM |
| CN1CC[C@]23c4c5ccc(O)c4O[C@H]2c2[nH]c4c(c2C[C@@]3(O)[C@H]1C5)C[C@@]1(O)[C@H]2Cc3ccc(O)c5c3[C@@]1(CCN2C)[C@H]4O5 [IIIh] | 0.23 ± 0.05 |  |  |  |  |  | GPI IC50 Ratio, Ethylketazocine (kappa opioid receptor [1]; compound 50 nM): 0.4 ± 0.05; GPI IC50 Ratio, Morphine Sulfate (mu receptor; compound 50 nM): 0.9 ± 0.2 |
| O=C1CC[C@@]2(O)[C@H]3Cc4ccc(O)c5c4[C@@]2(CCN3CC2CC2)[C@H]1O5 [naltrexone] |  |  |  |  |  |  | potency at mu receptors compared with kappa (mu receptors): much greater potency at mu receptors |
| CCn1c2c(c3c1[C@@H]1Oc4c(O)ccc5c4[C@@]14CCN(CC1CC1)[C@H](C5)[C@]4(O)C3)C[C@@]1(O)[C@H]3Cc4ccc(O)c5c4[C@@]1(CCN3CC1CC1)[C@H]2O5 [IIIc] |  | 147 ± 20 | 41 | 0 | 4.2 ± 1.1 | 2.2 ± 0.7 | MVD IC50 Ratio, DADLE (delta opioid receptor; antagonist 2 nM): 1.8 ± 0.3 |
| COc1ccc2c3c1O[C@H]1c4[nH]c5c(c4C[C@H]4[C@@H](C2)N(C)CC[C@]314)C[C@H]1[C@H]2Cc3ccc(OC)c4c3[C@@]1(CCN2C)[C@H]5O4 [IIIg] | 0.2 ± 0.04 |  |  |  |  |  | GPI IC50 Ratio, Ethylketazocine (kappa opioid receptor [1]; compound 100 nM): 0.4 ± 0.07; GPI IC50 Ratio, Morphine Sulfate (mu receptor; compound 100 nM): 0.5 ± 0.07 |
| Oc1ccc2c3c1O[C@H]1[C@H](NCCOCCOCCN[C@@H]4CC[C@@]5(O)[C@H]6Cc7ccc(O)c8c7[C@@]5(CCN6CC5CC5)[C@H]4O8)CC[C@@]4(O)[C@@H](C2)N(CC2CC2)CC[C@]314 [TENA, reference compound] |  | 19.6 ± 2.40 |  |  | 1.2 | 4.20 ± 1.20 | times more effective in antagonizing U50488H relative to morphine (kappa receptor; U50488H vs morphine): about 27 times; times more effective against ethylketazocine relative to morphine (kappa receptor; ethylketazocine vs morphine): about five; Emax at 0.01 µM ([2]; Cavia porcellus, @ 10 nM, read-out: GPI Agonism (maximal response at highest concentration)): 10% |
| Oc1ccc2c3c1O[C@H]1c4[nH]c5c(c4C[C@@]4(O)[C@@H](C2)N(CC2CC2)CC[C@]314)C[C@@]1(O)[C@H]2Cc3ccc(O)c4c3[C@@]1(CCN2CC1CC1)[C@H]5O4 [IIIa] |  | 49.7 ± 15.6 | 16 |  | 2.0 ± 0.1 | 4.7 ± 0.8 | antagonism of U50488H in GPI, IC50 ratio values compared with EK (kappa opioid receptor [4]): higher IC50 ratio values were observed; GPI IC50 Ratio, U50488H (kappa opioid receptor [4]; antagonist 2 nM): 11.0 ± 1.1; GPI IC50 Ratio, U50488H (kappa opioid receptor [4]; antagonist 20 nM): 178 ± 18; GPI IC50 Ratio, Ethylketazocine (kappa opioid receptor [1]; [7]): 8.8 ± 0.13; Emax at 0.2 µM ([2]; Cavia porcellus, @ 200 nM, read-out: GPI Agonism (maximal response at highest concentration)): 14%; GPI IC50 Ratio, Morphine Sulfate (mu receptor; [7]): 0.92 ± 0.16 |
